In patent US8895242B2, “Single molecule nucleic acid nanoparticles” (The Regents of the University of California, priority 2009, dated 2014):

Legend:
cells = test: Doxorubicin toxicity to cells with and without untargeted DNA particles; type: cell-based
Method: The IC50 was determined to be 0.1 μg of Doxo for […]. […] Targeted DNA particles may be selected or a targeting moiety added. (2) At the same time, DNA nanoparticles absorbed Doxo, which is good for our purpose of loading DNA with drugs (FIG. 45).

DNA nanoparticles = test: Doxorubicin fluorescence quenching on DNA nanoparticles; settings: indicates doxorubicin binding to the particles
Text: With increasing concentration of Doxorubicin, the DNA nanoparticles become saturated and free Doxorubicin in solution can fluoresce.
The fluorescence of doxorubicin is quenched with the addition of DNA nanoparticles, indicating doxorubicin binding to the particles (FIG. 44).

B16 melanoma = test: Intra-tumoral injection into B16 melanoma, immunohistochemistry of immune cell recruitment; type: in vivo, mice
Method: FIG. 23 provides data relating to Hp-91(270 μg), pI:C (125 μg), or Pam3Cys (125 μg) injected into B16 melanoma and the mice were sacrificed 24 h after the injection. The tumor was embedded in OCT and frozen sections were stained for Mac 1 (macrophages), CD11c (DCs), and CD3 (T cells) by immuno-histochemistry. Pictures were taken in brightfield at 20×.
In certain subsets of breast tumors the presence of tumor-associated macrophages is associated with […]. Thus, in order to maximize the anti-tumor immune response we tested two TLR agonists; pI:C (TLR3 agonist) and Pam3Cys (TLR2 agonist), and our immunostimulatory peptides for their ability to recruit immune cells to the tumor. Hp-91, pI:C, or Pam3Cys were injected into B16 melanoma, the mice were sacrificed 24 h after the injection and the tumor was frozen and sections stained for the indicated markers. […] This is a very promising result as Hp-91 will not only contribute to the recruitment of DCs, but also mature the arriving DCs. Thus in the context of antigen release by concurrent local cytotoxic therapy, we expect to create a very favorable environment for the uptake of tumor antigen by DCs and their subsequent activation. In addition, CD8 T cells after being primed in the draining lymph nodes are expected to be recruited in higher numbers to the tumor site via the peptide leading to a strong immune response and tumor killing.

[1] = tested on: pancreatic cancer cell line panc02; test: Flow cytometry binding of DNA nanoparticle clones to panc02; type: cell-based, mouse; settings: fluorescently labeled
Text: FIGS. 57A and 57B summarizes the results of the selection of pancreatic cancer cell line panc02 targeting particles. The mouse pancreatic lines panc02 was panned with a single module DNA nanoparticle library. After the 3rd and 4th round, the selected pool was fluorescently labeled and tested on the target cells by flow cytometry (FIG. 57A). A shift indicating enrichment of binding clones was observed. After the 5th and 6th round, clones were generated from the selected pool and sequenced (TABLE 6). 10 of the 12 sequenced clones contained a specific sequence motif: AATGGGGCG (SEQ ID NO:12). In two of the clones the motif appears in the same frame (C45 and C58). Two independent clones for each we recovered with the sequence of clone 40 and 46.

[2] = Hp-91 270 μg, pI:C 125 μg, Pam3Cys 125 μg, 24 h after injection
[3] = higher dose 500 μg, data not shown

COc1cccc2c1C(=O)c1c(O)c3c(c(O)c1C2=O)C[C@@](O)(C(=O)CO)C[C@@H]3O[C@H]1C[C@H](N)[C@H](O)[C@H](C)O1 [Doxo, Doxorubicin]
IC50 (cells): 0.1 µg
doxorubicin fluorescence on addition of DNA nanoparticles (DNA nanoparticles; listed as Doxorubicin): fluorescence is quenched
doxorubicin fluorescence on addition of DNA nanoparticles (DNA nanoparticles; listed as doxorubicin): quenched

CCCCCCCCCCCCCCCC(=O)N[C@@H](CSC[C@@H](COC(=O)CCCCCCCCCCCCCCC)OC(=O)CCCCCCCCCCCCCCC)C(=O)O [Pam3Cys]
recruitment of DCs (CD11c+) into the tumor (B16 melanoma; [2]): only Hp-91
recruitment of T cells (CD3+) into the tumor (B16 melanoma; [2]): only Hp-91
recruitment of macrophages into the tumor (B16 melanoma; [2]): caused recruitment of macrophages
DC recruitment into the tumor (B16 melanoma; [3]): no T cell and DC recruitment
T cell recruitment into the tumor (B16 melanoma; [3]): no T cell

B1: C21: panc02-selection clone lacking the … motif, SEQ ID NO:10 (nucleic acid)
DNA: TGCTTTTTGGAACTCCTGCTAGACGTTAGATGTATCTGACCTTACGACTTCAACTTCCTTCTAAATCTGCCCACAACGATGGTGACGTTGAGTTGGATCC
modifications: DNA, backbone and methylation of C not given here; rolling circle concatemer folded into DNA nanoparticle
binding to panc02 [1]: do not

B2: C50: panc02-selection clone lacking the … motif, SEQ ID NO:11 (nucleic acid)
DNA: TGCTTTTTGGAACTCCTGCTCAACTTGTGTCCTCTTGAAAGAGTCGGTCATACCTATAAGAATACTTTTATACAGCCAAAGGTGACGTTGAGTTGGATCC
modifications: DNA, backbone and methylation of C not given here; rolling circle concatemer folded into DNA nanoparticle
binding to panc02 [1]: do not
